In brackets after ≈: the same amount, converted by molar mass.
How the values were obtained:
Format in all cases: functional
Candida albicans [1] = test: Antifungal activity against Candida albicans SC5314 assessed as inhibition of fungal growth incubated for 24 hrs by broth microdilution method
Candida parapsilosis = test: Antifungal activity against Candida parapsilosis 0306392 assessed as inhibition of fungal growth incubated for 24 hrs by broth microdilution method; settings: Lodderomyces parapsilosis
Cryptococcus neoformans = test: Antifungal activity against Cryptococcus neoformans ATCCBLS108 assessed as inhibition of fungal growth incubated for 72 hrs by broth microdilution method
Aspergillus fumigatus = test: Antifungal activity against Aspergillus fumigatus 0504656 assessed as inhibition of fungal growth incubated for 48 hrs by broth microdilution method
Nannizzia gypsea = test: Antifungal activity against Microsporum gypseum 0310388 assessed as inhibition of fungal growth incubated for 24 hrs by broth microdilution method
Trichophyton rubrum = test: Antifungal activity against Trichophyton rubrum 0501124 assessed as inhibition of fungal growth incubated for 24 hrs by broth microdilution method
Candida tropicalis = test: Antifungal activity against Candida tropicalis 0370354 assessed as inhibition of fungal growth incubated for 24 hrs by broth microdilution method
Candida albicans [2] = test: Antifungal activity against Candida albicans Y0109 assessed as inhibition of fungal growth incubated for 24 hrs by broth microdilution method
Candida albicans [3] = test: Potency index, ratio of Fluconazole MIC80 to test compound MIC80 for antifungal activity against Candida albicans Y0109 assessed as inhibition of fungal growth incubated for 24 hrs by broth microdilution method
Candida albicans [4] = test: Antifungal activity against fluconazole-resistant Candida albicans 904 assessed as inhibition of fungal growth incubated for 24 hrs by broth microdilution method
Candida albicans [5] = test: Potency index, ratio of Fluconazole MIC80 to test compound MIC80 for antifungal activity against Candida albicans SC5314 assessed as inhibition of fungal growth incubated for 24 hrs by broth microdilution method
Candida albicans [6] = test: Potency index, ratio of Ketoconazole MIC80 to test compound MIC80 for antifungal activity against Candida albicans SC5314 assessed as inhibition of fungal growth incubated for 24 hrs by broth microdilution method
Candida albicans [7] = test: Antifungal activity against fluconazole-resistant Candida albicans 901 assessed as inhibition of fungal growth incubated for 24 hrs by broth microdilution method
Candida albicans [8] = test: Potency index, ratio of Ketoconazole MIC80 to test compound MIC80 for antifungal activity against Candida albicans Y0109 assessed as inhibition of fungal growth incubated for 24 hrs by broth microdilution method

Compound: Oc1ccc([C@@]2(Cn3ccnc3)OC[C@H](Cn3cc(CCNC4CC4)nn3)O2)c(F)c1 (mixture of isomers)
- MIC80 (Candida albicans [1]): 0.125 µg/mL
- MIC80 (Candida parapsilosis): 0.25 µg/mL
- MIC80 (Cryptococcus neoformans): 0.125 µg/mL
- MIC80 (Aspergillus fumigatus): > 64 µg/mL
- MIC80 (Nannizzia gypsea): 0.25 µg/mL
- MIC80 (Trichophyton rubrum): 0.125 µg/mL
- MIC80 (Candida tropicalis): 0.125 µg/mL
- MIC80 (Candida albicans [2]): 0.063 µg/mL

Compound: Cc1ccc(-c2cn(C[C@H]3CO[C@](Cn4ccnc4)(c4ccc(O)cc4F)O3)nn2)cc1 (mixture of isomers)
- MIC80 (Candida albicans [1]): 0.063 µg/mL
- MIC80 (Candida parapsilosis): 2 µg/mL
- MIC80 (Cryptococcus neoformans): 2 µg/mL
- MIC80 (Aspergillus fumigatus): > 64 µg/mL
- MIC80 (Nannizzia gypsea): 4 µg/mL
- MIC80 (Trichophyton rubrum): 4 µg/mL
- MIC80 (Candida tropicalis): 0.25 µg/mL
- MIC80 (Candida albicans [2]): 0.063 µg/mL

Compound: CCC(C)n1ncn(-c2ccc(N3CCN(c4ccc(OCC5COC(Cn6cncn6)(c6ccc(Cl)cc6Cl)O5)cc4)CC3)cc2)c1=O (stereo not drawn) [ITRACONAZOLE]
- MIC80 (Candida albicans [1]): 0.25 µg/mL (≈ 0.354 µM)
- MIC80 (Candida parapsilosis): 0.25 µg/mL (≈ 0.354 µM)
- MIC80 (Cryptococcus neoformans): 0.063 µg/mL (≈ 0.0893 µM)
- MIC80 (Aspergillus fumigatus): 1 µg/mL (≈ 1.42 µM)
- MIC80 (Nannizzia gypsea): 0.25 µg/mL (≈ 0.354 µM)
- MIC80 (Trichophyton rubrum): 0.063 µg/mL (≈ 0.0893 µM)
- MIC80 (Candida tropicalis): 0.25 µg/mL (≈ 0.354 µM)
- MIC80 (Candida albicans [2]): 0.063 µg/mL (≈ 0.0893 µM)

Compound: Oc1ccc([C@@]2(Cn3ccnc3)OC[C@H](Cn3cc(-c4ccc(F)cc4)nn3)O2)c(F)c1 (mixture of isomers)
- MIC80 (Candida albicans [1]): 0.125 µg/mL
- MIC80 (Candida parapsilosis): 0.25 µg/mL
- MIC80 (Cryptococcus neoformans): 0.125 µg/mL
- MIC80 (Aspergillus fumigatus): > 64 µg/mL
- MIC80 (Nannizzia gypsea): 0.125 µg/mL
- MIC80 (Trichophyton rubrum): 4 µg/mL
- MIC80 (Candida tropicalis): 4 µg/mL
- MIC80 (Candida albicans [2]): 0.063 µg/mL

Compound: CCN(CC)CCc1cn(C[C@H]2CO[C@](Cn3ccnc3)(c3ccc(O)cc3F)O2)nn1 (mixture of isomers)
- MIC80 (Candida albicans [1]): 0.016 µg/mL
- MIC80 (Candida parapsilosis): 0.125 µg/mL
- MIC80 (Cryptococcus neoformans): 0.063 µg/mL
- MIC80 (Aspergillus fumigatus): 16 µg/mL
- Ratio (Candida albicans [3]): 16
- MIC80 (Candida albicans [4]): > 64 µg/mL
- Ratio (Candida albicans [5]): 16
- MIC80 (Nannizzia gypsea): 0.125 µg/mL
- MIC80 (Trichophyton rubrum): 0.25 µg/mL
- Ratio (Candida albicans [6]): 64
- MIC80 (Candida tropicalis): 0.125 µg/mL
- MIC80 (Candida albicans [2]): 0.016 µg/mL
- MIC80 (Candida albicans [7]): > 64 µg/mL
- Ratio (Candida albicans [8]): 64

Compound: Oc1ccc([C@@]2(Cn3ccnc3)OC[C@H](Cn3cc(C(O)c4ccccc4)nn3)O2)c(F)c1 (mixture of isomers)
- MIC80 (Candida albicans [1]): 0.125 µg/mL
- MIC80 (Candida parapsilosis): 0.125 µg/mL
- MIC80 (Cryptococcus neoformans): 0.063 µg/mL
- MIC80 (Aspergillus fumigatus): > 64 µg/mL
- MIC80 (Nannizzia gypsea): 0.25 µg/mL
- MIC80 (Trichophyton rubrum): 1 µg/mL
- MIC80 (Candida tropicalis): 0.125 µg/mL
- MIC80 (Candida albicans [2]): 0.063 µg/mL

Compound: Oc1ccc([C@@]2(Cn3ccnc3)OC[C@H](Cn3cc(-c4cccc(F)c4)nn3)O2)c(F)c1 (mixture of isomers)
- MIC80 (Candida albicans [1]): 0.125 µg/mL
- MIC80 (Candida parapsilosis): 0.125 µg/mL
- MIC80 (Cryptococcus neoformans): 1 µg/mL
- MIC80 (Aspergillus fumigatus): > 64 µg/mL
- MIC80 (Nannizzia gypsea): 1 µg/mL
- MIC80 (Trichophyton rubrum): 2 µg/mL
- MIC80 (Candida tropicalis): 1 µg/mL
- MIC80 (Candida albicans [2]): 0.063 µg/mL

Compound: Oc1ccc([C@@]2(Cn3ccnc3)OC[C@H](Cn3cc(C4CC4)nn3)O2)c(F)c1 (mixture of isomers)
- MIC80 (Candida albicans [1]): 0.25 µg/mL
- MIC80 (Candida parapsilosis): 0.25 µg/mL
- MIC80 (Cryptococcus neoformans): 0.25 µg/mL
- MIC80 (Aspergillus fumigatus): 16 µg/mL
- MIC80 (Nannizzia gypsea): 0.125 µg/mL
- MIC80 (Trichophyton rubrum): 4 µg/mL
- MIC80 (Candida tropicalis): 0.25 µg/mL
- MIC80 (Candida albicans [2]): 0.063 µg/mL

Compound: Oc1ccc([C@@]2(Cn3ccnc3)OC[C@H](Cn3cc(-c4ccccn4)nn3)O2)c(F)c1 (mixture of isomers)
- MIC80 (Candida albicans [1]): 0.25 µg/mL
- MIC80 (Candida parapsilosis): 0.25 µg/mL
- MIC80 (Cryptococcus neoformans): 0.125 µg/mL
- MIC80 (Aspergillus fumigatus): 16 µg/mL
- MIC80 (Nannizzia gypsea): 0.125 µg/mL
- MIC80 (Trichophyton rubrum): 4 µg/mL
- MIC80 (Candida tropicalis): 4 µg/mL
- MIC80 (Candida albicans [2]): 0.063 µg/mL

Compound: CC1CCN(CCc2cn(C[C@H]3CO[C@](Cn4ccnc4)(c4ccc(O)cc4F)O3)nn2)CC1 (mixture of isomers)
- MIC80 (Candida albicans [1]): 0.016 µg/mL
- MIC80 (Candida parapsilosis): 0.125 µg/mL
- MIC80 (Cryptococcus neoformans): 0.063 µg/mL
- MIC80 (Aspergillus fumigatus): > 64 µg/mL
- MIC80 (Nannizzia gypsea): 0.25 µg/mL
- MIC80 (Trichophyton rubrum): 1 µg/mL
- MIC80 (Candida tropicalis): 0.25 µg/mL
- MIC80 (Candida albicans [2]): 0.063 µg/mL

Compound: CCCc1ccc(-c2cn(C[C@H]3CO[C@](Cn4ccnc4)(c4ccc(O)cc4F)O3)nn2)cc1 (mixture of isomers)
- MIC80 (Candida albicans [1]): 0.125 µg/mL
- MIC80 (Candida parapsilosis): 2 µg/mL
- MIC80 (Cryptococcus neoformans): 0.25 µg/mL
- MIC80 (Aspergillus fumigatus): > 64 µg/mL
- MIC80 (Nannizzia gypsea): 2 µg/mL
- MIC80 (Trichophyton rubrum): 2 µg/mL
- MIC80 (Candida tropicalis): 4 µg/mL
- MIC80 (Candida albicans [2]): 0.063 µg/mL

Compound: CCCCCOc1ccc(-c2cn(C[C@H]3CO[C@](Cn4ccnc4)(c4ccc(O)cc4F)O3)nn2)cc1 (mixture of isomers)
- MIC80 (Candida albicans [1]): 0.016 µg/mL
- MIC80 (Candida parapsilosis): 0.125 µg/mL
- MIC80 (Cryptococcus neoformans): 0.063 µg/mL
- MIC80 (Aspergillus fumigatus): 16 µg/mL
- Ratio (Candida albicans [3]): 16
- MIC80 (Candida albicans [4]): > 64 µg/mL
- Ratio (Candida albicans [5]): 16
- MIC80 (Nannizzia gypsea): 0.25 µg/mL
- MIC80 (Trichophyton rubrum): 0.5 µg/mL
- Ratio (Candida albicans [6]): 64
- MIC80 (Candida tropicalis): 1 µg/mL
- MIC80 (Candida albicans [2]): 0.016 µg/mL
- MIC80 (Candida albicans [7]): > 64 µg/mL
- Ratio (Candida albicans [8]): 64
